Reference: patent EP0641797A1, “Cephem derivatives and antimicrobial agents containing the same” (KATAYAMA SEIYAKUSYO CO. Ltd., priority 1993, dated 1995)
≈ marks a conversion by molar mass, not a printed value. Read-outs that look alike come from different tables or passages of the source.

Tests used:
Assay in all cases: MIC on standard strains, standard method of Japan Society of Chemotherapy
Format in all cases: cell-based
[1] = test system: A. faecalis ATCC 3750; settings: Alcaligenes faecalis, ATCC3750, A. faecalis ATCC 3750; read-out: MIC
How it was run: (§1)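 Antibacterial activity is measured by the Japan Society of Chemotherapy method. Flomoxef and cefotiam act as control agents.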

[2] = test system: B. subtilis ATCC 6633
How it was run: as §1

[3] = test system: P. mirabilis IFO 3849
How it was run: as §1

[4] = test system: E. coli CSH2(RE45); settings: Escherichia coli
How it was run: (§2)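 Read-out: lowest concentration inhibiting growth, per Japanese chemotherapy society guidelines. Strain set comprised 25 standard organisms, including two MRSA isolates. Controls included CTM and FMOX.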

[5] = test system: S. aureus 195; settings: Staphylococcus aureus; S. aureus 195 (MRSA)
How it was run: as §1

[6] = test system: E. coli CSH2(RK1); settings: Escherichia coli
How it was run: as §2

[7] = test system: S. aureus Smith; settings: Staphylococcus aureus, read-out: MIC
How it was run: as §1

[8] = test system: P. aeruginosa NCTC 10490; settings: Pseudomonas aeruginosa, NCTC10490, P. aeruginosa NCTC 10490; read-out: MIC
How it was run: as §1

[9] = test system: E. coli NHIJ JC-2; settings: Escherichia coli, NHIJJC2
How it was run: as §1

[10] = test system: A. calcoaceticos T59
How it was run: as §1

[11] = test system: C. freundii ATCC 8090
How it was run: as §1

[12] = test system: K. pneuminiae No. 42
How it was run: as §1

[13] = test system: E. cloacae ATCC 13407
How it was run: as §1

[14] = test system: S. marcescens IAM 1184; settings: Serratia marcescens, IAM1184, S. marcescens IAM 1184; read-out: MIC
How it was run: as §1

[15] = test system: K. pneuminiae IFO 3317
How it was run: as §1

[16] = test system: S. marcescens No. 16-2; settings: Serratia marcescens, NO.162
How it was run: as §1

[17] = test system: M. luteus ATCC 9341; settings: Micrococcus luteus, ATCC9341
How it was run: as §1

[18] = test system: P. cepacia
How it was run: as §1

[19] = test system: S. aureus 209p JC-1; settings: Staphylococcus aureus, 209P, read-out: MIC
How it was run: as §1

[20] = test system: P. vulugaris OX-19
How it was run: as §1

[21] = test system: P. aeruginosa AKR17; settings: Pseudomonas aeruginosa
How it was run: as §1

[22] = test system: S. aureus 167; settings: Staphylococcus aureus; S. aureus 167 (MRSA)
How it was run: as §1

[23] = test system: E. cloacae Nek39
How it was run: as §1

[24] = test system: M. morganii IFO 3848; settings: Morganella morganii, IFO3848
How it was run: as §1

[25] = test system: S. epidemidis IAM 1296
How it was run: as §1

[26] = Bacillus subtilis, ATCC6633, B. subtilis ATCC 6633, read-out: MIC
[27] = Proteus mirabilis, IFO3849, P. mirabilis IFO 3849, read-out: MIC
[28] = Citrobacter freundii, ATCC8090, C. freundii ATCC 8090, read-out: MIC
[29] = Enterobacter cloacae, ATCC13407, E. cloacae ATCC 13407, read-out: MIC
[30] = Burkholderia cepacia, read-out: MIC
[31] = Enterobacter cloacae, NEK39, E. cloacae Nek39, read-out: MIC

Compound	MIC [1] [µg/mL]	MIC [2, 26] [µg/mL]	MIC [3, 27] [µg/mL]	MIC [4] [µg/mL]	MIC [5] [µg/mL]	MIC [6] [µg/mL]	MIC [7] [µg/mL]	MIC [8] [µg/mL]	MIC [9] [µg/mL]	MIC ([10]; read-out: MIC) [µg/mL]	MIC [11, 28] [µg/mL]	MIC [12] [µg/mL]	MIC [13, 29] [µg/mL]	MIC [14] [µg/mL]	MIC [15] [µg/mL]	MIC [16] [µg/mL]	MIC [17] [µg/mL]	MIC [18, 30] [µg/mL]	MIC [19] [µg/mL]	MIC [20] [µg/mL]	other results
NC(=NO)c1cc[n+](CC2=C(C(=O)[O-])N3C(=O)[C@@H](NC(=O)/C(=N\O)c4csc(N)n4)[C@H]3SC2)cc1 [Ex. 20, 7β-[2-(2-aminothiazol-4-yl)-2-syn-hydroxyiminoacetamido]-3-[4-(1-amino-1-hydroxyiminomethyl)pyridinio]methyl-3-cephem-4-carboxylate]	0.78 (≈ 1.5 µM)	0.2 (≈ 0.386 µM)	0.2 (≈ 0.386 µM)	0.2 (≈ 0.386 µM)	3.31 (≈ 6.38 µM)	0.39 (≈ 0.752 µM)	0.39 (≈ 0.752 µM)	0.78 (≈ 1.5 µM)	0.2 (≈ 0.386 µM)	6.25 (≈ 12.1 µM)	0.2 (≈ 0.386 µM)	0.39 (≈ 0.752 µM)	12.5 (≈ 24.1 µM)	0.1 (≈ 0.193 µM)	0.1 (≈ 0.193 µM)	100 (≈ 193 µM)	0.025 (≈ 0.0482 µM)	> 100	0.2 (≈ 0.386 µM)	0.2 (≈ 0.386 µM)	MIC [21]: > 100 µg/mL; MIC [22]: 6.25 µg/mL (≈ 12.1 µM); MIC [23, 31]: 50 µg/mL (≈ 96.4 µM); MIC [24]: 0.1 µg/mL (≈ 0.193 µM); MIC [25]: 0.05 µg/mL (≈ 0.0964 µM)
Nc1nc(/C(=N/O)C(=O)N[C@@H]2C(=O)N3C(C(=O)[O-])=C(C[n+]4ccc(-c5nccs5)cc4)CS[C@H]23)cs1 [Ex. 21, 7β-[2-(2-aminothiazol-4-yl)-2-syn-hydroxyiminoacetamido]-3-[4-(thiazol-2-yl)pyridinio]methyl-3-cephem-4-carboxylate]	0.78 (≈ 1.43 µM)	0.2 (≈ 0.368 µM)	0.2 (≈ 0.368 µM)	0.1 (≈ 0.184 µM)	1.56 (≈ 2.87 µM)	0.2 (≈ 0.368 µM)	0.39 (≈ 0.717 µM)	6.25 (≈ 11.5 µM)	0.1 (≈ 0.184 µM)	12.5 (≈ 23 µM)	0.1 (≈ 0.184 µM)	0.2 (≈ 0.368 µM)	1.56 (≈ 2.87 µM)	0.1 (≈ 0.184 µM)	0.1 (≈ 0.184 µM)	50 (≈ 92 µM)	0.025 (≈ 0.046 µM)	> 100	0.2 (≈ 0.368 µM)	0.1 (≈ 0.184 µM)	MIC [21]: > 100 µg/mL; MIC [22]: 3.13 µg/mL (≈ 5.76 µM); MIC [23, 31]: 50 µg/mL (≈ 92 µM); MIC [24]: 0.05 µg/mL (≈ 0.092 µM); MIC [25]: 0.1 µg/mL (≈ 0.184 µM)
Nc1nc(/C(=N/O)C(=O)N[C@@H]2C(=O)N3C(C(=O)[O-])=C(C[n+]4ccc(-c5cncs5)cc4)CS[C@H]23)cs1 [Ex. 22, 7β-[2-(2-aminothiazol-4-yl)-2-syn-hydroxyiminoacetamido]-3-[4-(thiazol-5-yl)pyridinio]methyl-3-cephem-4-carboxylate]	1.56 (≈ 2.87 µM)	0.2 (≈ 0.368 µM)	0.1 (≈ 0.184 µM)	0.1 (≈ 0.184 µM)	0.78 (≈ 1.43 µM)	0.2 (≈ 0.368 µM)	0.2 (≈ 0.368 µM)	3.13 (≈ 5.76 µM)	0.1 (≈ 0.184 µM)	12.5 (≈ 23 µM)	0.1 (≈ 0.184 µM)	0.1 (≈ 0.184 µM)	0.78 (≈ 1.43 µM)	0.1 (≈ 0.184 µM)	0.05 (≈ 0.092 µM)	25 (≈ 46 µM)	0.025 (≈ 0.046 µM)	> 100	0.2 (≈ 0.368 µM)	0.1 (≈ 0.184 µM)	MIC [21]: > 100 µg/mL; MIC [22]: 1.56 µg/mL (≈ 2.87 µM); MIC [23, 31]: 25 µg/mL (≈ 46 µM); MIC [24]: 0.025 µg/mL (≈ 0.046 µM); MIC [25]: 0.1 µg/mL (≈ 0.184 µM)
CO[C@@]1(NC(=O)CSC(F)F)C(=O)N2C(C(=O)O)=C(CSc3nnnn3CCO)CO[C@@H]21 [FMOX, flomoxef, reference compound]	0.1 (≈ 0.201 µM)	0.39 (≈ 0.786 µM)	0.39 (≈ 0.786 µM)	0.1 (≈ 0.201 µM)	3.13 (≈ 6.3 µM)	0.1 (≈ 0.201 µM)	0.39 (≈ 0.786 µM)	> 100	0.1 (≈ 0.201 µM)	> 100	0.39 (≈ 0.786 µM)	0.1 (≈ 0.201 µM)	50 (≈ 101 µM)	0.2 (≈ 0.403 µM)	0.05 (≈ 0.101 µM)	100 (≈ 201 µM)	0.1 (≈ 0.201 µM)	50 (≈ 101 µM)	0.39 (≈ 0.786 µM)	0.39 (≈ 0.786 µM)	MIC ([2]; B. subtilis ATCC 6633): 0.2 µg/mL (≈ 0.403 µM); MIC ([3]; P. mirabilis IFO 3849): 0.2 µg/mL (≈ 0.403 µM); MIC [10]: 100 µg/mL (≈ 201 µM); MIC ([11]; C. freundii ATCC 8090): 0.2 µg/mL (≈ 0.403 µM); MIC ([13]; E. cloacae ATCC 13407): 100 µg/mL (≈ 201 µM); MIC [18]: 100 µg/mL (≈ 201 µM); MIC [21]: > 100 µg/mL; MIC [22]: 50 µg/mL (≈ 101 µM); MIC ([23]; E. cloacae Nek39): 100 µg/mL (≈ 201 µM); MIC [23, 31]: > 100 µg/mL; MIC [24]: 0.39 µg/mL (≈ 0.786 µM); MIC [25]: 0.2 µg/mL (≈ 0.403 µM)
